Series [1] is described as follows: Protein binding in vitro, human samples. It is filed as in vitro ADME. The protocol:
(§1) The potency and efficacy of Compound 13 was evaluated in vivo. For these studies, the pharmacokinetics of Compound 13 were first evaluated in vitro and in vivo (FIG. 14).

Series [2] deals with human E-cadherin promoter. Put plainly: E-cadherin promoter luciferase reporter assay in SW620inv cells. To be noted: 10 μM, 24 hours. The class given is cell-based. The protocol: The 1.4 kbp E-cadherin promoter plasmid (E1) and deletion plasmids E2-E8 were a gift from Dr. Eric Fearon at The University of Michigan (Liu, Y. N., et al. (2005) Onocogene 24, 8277-8290). All plasmid constructs were sequenced at the Vanderbilt University Sequencing Core to confirm the E-cadherin promoter fragments using the PCR primers listed in Table I and herein below. Luciferase assays were performed as previously described (Freeman, T. J., et al. (2012) Gastroenterology 142, 562-572).
Compound 13 (259Y) induces>20-fold increases in reporter activation driven by the 1130 bp promoter region in an assay in which an exogenous firefly luciferase gene is driven by defined regions of the human E-cadherin promoter. This region includes consensus binding sequences for several known transcription factors, including AML1, P300, Snail and SP1 (Liu, Y. N., et al. (2005) Oncogene 24, 8277-8290). […]
Referring to FIG. 5, a diagram of the 8 E-cadherin promoter reporter plasmids (full length and truncations) utilized to determine promoter elements critical for promoter activity is shown. […] Fold change is Log2^−ΔΔCp of the normalized fluorescence signal relative to the mean of the DMSO treated group. Statistical significance was calculated using a two-way ANOVA (Holm-Sidak method): ****=p<0.00005, ***=p<0.0005, **=p<0.005, *=p<0.05. […]

Series [3] has as its system proximal region of the E-cadherin promoter (Cdh1) in SW620inv cells. Put plainly: ChIP assay at proximal E-cadherin promoter, SW620inv cells. It is filed as cell-based.
A short description of series [4]: Clearance in human microsomes. It is filed as in vitro ADME. As to the method:
as §1

Series [5] deals with E-cadherin expression in SW620inv colon cancer cells. Briefly: Quantitative in-cell Western (ICW), E-cadherin restoration in SW620inv cells. The class given is cell-based. As to conditions: 24 hours, 3 biological replicates. As to the method: SW620inv cells were used for ICW analysis as described (Stoops, S. L., et al. (2011) ACS Chemical Biology 6, 452-465).
SW620 cells (ATCC p92) were grown in RPMI+10% FBS+P/S to sub-confluence. The cells were washed with PBS, trypsinized, and re-suspended in serum-free RPMI at a concentration of one million cells/mL. The cells were then added to the upper chamber of 24 mm transwell (Costar#3428) that had been coated with 400 μL of 2.5 mg/mL matrigel (BD Biosciences). One milliliter of 10% FBS+P/S was added to the lower chamber. The cells were incubated at 37° C. for 72 hours in order to allow the cells to invade. Four biological replicate transwells were prepared for invasion. […] These invasive cells were then analyzed by western blot, matrigel invasion assay, and immunofluorescence for E-cadherin levels with and without TSA treatments. […]
Compounds of the present invention restore E-cadherin protein to the surface of selected aggressive colon and lung cancer cells. […] The kinetics of altered E-cadherin expression in SW620inv cells was determined by quantitative Western blot, using the Odyssey imaging system. […]
Referring to FIG. 2B and FIG. 2C, concentration dependent changes in E-cadherin expression following 24 hours of Compound 13 (259Y) treatment as determined by quantitative in cell Western (ICW) are shown.

Setting [6] is: SW620inv, ChIP, 10 μM vs DMSO (FIG. 7C).

From patent US9783510B2, “Small molecule mediated transcriptional induction of E-cadherin” (Vanderbilt University, priority 2014, dated 2017) come the findings set out here.

For orientation: EC50 means the concentration needed to bring the measured effect to its halfway point. A higher EC50 goes with weaker potency.

Take `O=C(NCCCNC(=O)c1cccnc1O)c1cc(-c2ccccc2)on1` [Compound 13, N-(3-(2-hydroxynicotinamido)propyl)-5-phenylisoxazole-3-carboxamide]: in series [1], the protein binding result is “relatively high”. This compound came in with a reporter activation in series [2] (1130 bp promoter region) of over 20 fold. The “reporter activation above control after serial deletion of distal promoter regions” value in series [2] (deletion incl. −492 bp to −330 bp) is reported as over 10 ×. In addition, the “Pol II association with the E-cadherin proximal promoter” value in series [3] (ChIP (FIG. 8)) turned out to be 3.7 fold. In addition, in series [3] (setting [6]), the “enriched binding of H3K4me3 at the E-cadherin promoter” value turned out to be 2.1 fold, the “enriched binding of H3K9Ac at the E-cadherin promoter” value is listed as 3.4 fold and the “enriched binding of Pol II at the E-cadherin promoter” value is reported as 4.6 fold. Also, the clearance entry in series [4] is on record as “minimal”. In series [5], this compound displayed a concentration giving a half-maximal response (EC50) of 2220 nM.
